Reference: ChEMBL document CHEMBL4004803, “Syntheses and antibacterial activity of soluble 9-bromo substituted indolizinoquinoline-5,12-dione derivatives” (Eur J Med Chem, 2017)
In brackets after ≈: the same amount, converted by molar mass.

How the values were obtained:
Assay type in all cases: functional
Staphylococcus aureus [1] = assay: Antibacterial activity against methicillin-resistant Staphylococcus aureus 614019 clinical isolate after 20 to 24 hrs by two-fold microdilution method
Staphylococcus aureus [2] = assay: Antibacterial activity against methicillin-resistant Staphylococcus aureus 20106-2 clinical isolate after 20 to 24 hrs by two-fold microdilution method
Staphylococcus aureus [3] = assay: Antibacterial activity against methicillin-resistant Staphylococcus aureus 20534 clinical isolate after 20 to 24 hrs by two-fold microdilution method
Staphylococcus aureus [4] = assay: Antibacterial activity against methicillin-resistant Staphylococcus aureus 221022 clinical isolate after 20 to 24 hrs by two-fold microdilution method
Staphylococcus aureus [5] = assay: Antibacterial activity against methicillin-resistant Staphylococcus aureus 111625 clinical isolate after 20 to 24 hrs by two-fold microdilution method
Staphylococcus aureus [6] = assay: Antibacterial activity against methicillin-resistant Staphylococcus aureus 30116-1 clinical isolate after 20 to 24 hrs by two-fold microdilution method
Staphylococcus aureus [7] = assay: Antibacterial activity against methicillin-resistant Staphylococcus aureus 10281-2 clinical isolate after 20 to 24 hrs by two-fold microdilution method
Staphylococcus aureus [8] = assay: Antibacterial activity against methicillin-resistant Staphylococcus aureus 202045 clinical isolate after 20 to 24 hrs by two-fold microdilution method
Escherichia coli = assay: Antibacterial activity against Escherichia coli ATCC 25922 after 20 to 24 hrs by two-fold microdilution method
Staphylococcus aureus [9] = assay: Antibacterial activity against methicillin-resistant Staphylococcus aureus 112047 clinical isolate after 20 to 24 hrs by two-fold microdilution method
Staphylococcus aureus [10] = assay: Antibacterial activity against methicillin-resistant Staphylococcus aureus 1107027 clinical isolate after 20 to 24 hrs by two-fold microdilution method
Staphylococcus aureus [11] = assay: Antibacterial activity against methicillin-resistant Staphylococcus aureus 131215 clinical isolate after 20 to 24 hrs by two-fold microdilution method
Staphylococcus aureus [12] = assay: Antibacterial activity against methicillin-resistant Staphylococcus aureus 912014 clinical isolate after 20 to 24 hrs by two-fold microdilution method
Staphylococcus aureus [13] = assay: Antibacterial activity against methicillin-resistant Staphylococcus aureus 110834 clinical isolate after 20 to 24 hrs by two-fold microdilution method
Staphylococcus aureus [14] = assay: Antibacterial activity against methicillin-resistant Staphylococcus aureus 111423 clinical isolate after 20 to 24 hrs by two-fold microdilution method
Staphylococcus aureus [15] = assay: Antibacterial activity against methicillin-resistant Staphylococcus aureus 531220 clinical isolate after 20 to 24 hrs by two-fold microdilution method
Staphylococcus aureus [16] = assay: Antibacterial activity against methicillin-resistant Staphylococcus aureus 120827 clinical isolate after 20 to 24 hrs by two-fold microdilution method
Staphylococcus aureus [17] = assay: Antibacterial activity against methicillin-resistant Staphylococcus aureus 519030 clinical isolate after 20 to 24 hrs by two-fold microdilution method
Staphylococcus aureus [18] = assay: Antibacterial activity against methicillin-resistant Staphylococcus aureus clinical isolate after 20 to 24 hrs by two-fold microdilution method
Staphylococcus aureus [19] = assay: Antibacterial activity against methicillin-resistant Staphylococcus aureus 625032 clinical isolate after 20 to 24 hrs by two-fold microdilution method
Staphylococcus aureus [20] = assay: Antibacterial activity against […] Staphylococcus aureus ATCC 25923 after 20 to 24 hrs by two-fold microdilution method
Staphylococcus aureus [21] = assay: Antibacterial activity against methicillin-resistant Staphylococcus aureus 414244 clinical isolate after 20 to 24 hrs by two-fold microdilution method
Staphylococcus aureus [22] = assay: Antibacterial activity against methicillin-resistant Staphylococcus aureus 1026211 clinical isolate after 20 to 24 hrs by two-fold microdilution method
Staphylococcus aureus [23] = assay: Antibacterial activity against methicillin-resistant Staphylococcus aureus 1025022 clinical isolate after 20 to 24 hrs by two-fold microdilution method
Staphylococcus aureus [24] = assay: Antibacterial activity against methicillin-resistant Staphylococcus aureus 530231 clinical isolate after 20 to 24 hrs by two-fold microdilution method
Enterococcus faecalis = assay: Antibacterial activity against Enterococcus faecalis ATCC 29212 after 20 to 24 hrs by two-fold microdilution method
Staphylococcus aureus [25] = assay: Antibacterial activity against methicillin-resistant Staphylococcus aureus 1212221 clinical isolate after 20 to 24 hrs by two-fold microdilution method
Staphylococcus aureus [26] = assay: Antibacterial activity against methicillin-resistant Staphylococcus aureus 212014 clinical isolate after 20 to 24 hrs by two-fold microdilution method
Staphylococcus aureus [27] = assay: Antibacterial activity against methicillin-resistant Staphylococcus aureus 112430 clinical isolate after 20 to 24 hrs by two-fold microdilution method
Staphylococcus aureus [28] = assay: Antibacterial activity against methicillin-resistant Staphylococcus aureus 11819 clinical isolate after 20 to 24 hrs by two-fold microdilution method
Staphylococcus aureus [29] = assay: Antibacterial activity against methicillin-resistant Staphylococcus aureus 908046 clinical isolate after 20 to 24 hrs by two-fold microdilution method
Staphylococcus aureus [30] = assay: Antibacterial activity against methicillin-resistant Staphylococcus aureus 1019240 clinical isolate after 20 to 24 hrs by two-fold microdilution method
Staphylococcus aureus [31] = assay: Antibacterial activity against methicillin-resistant Staphylococcus aureus 724244 clinical isolate after 20 to 24 hrs by two-fold microdilution method
[32] = system: Staphylococcus haemolyticus; assay: Antibacterial activity against Staphylococcus haemolyticus CICC 10373 after 20 to 24 hrs by two-fold microdilution method
Staphylococcus aureus [33] = assay: Antibacterial activity against methicillin-resistant Staphylococcus aureus 219236 clinical isolate after 20 to 24 hrs by two-fold microdilution method
Streptococcus pneumoniae = assay: Antibacterial activity against Streptococcus pneumoniae ATCC 6305 after 20 to 24 hrs by two-fold microdilution method
Staphylococcus aureus [34] = assay: Antibacterial activity against methicillin-resistant Staphylococcus aureus 118038 clinical isolate after 20 to 24 hrs by two-fold microdilution method
Staphylococcus aureus [35] = assay: Antibacterial activity against methicillin-resistant Staphylococcus aureus 1012039 clinical isolate after 20 to 24 hrs by two-fold microdilution method
Staphylococcus aureus [36] = assay: Antibacterial activity against methicillin-resistant Staphylococcus aureus 224001 clinical isolate after 20 to 24 hrs by two-fold microdilution method
Staphylococcus aureus [37] = assay: Antibacterial activity against methicillin-resistant Staphylococcus aureus 123152 clinical isolate after 20 to 24 hrs by two-fold microdilution method
Staphylococcus aureus [38] = assay: Antibacterial activity against methicillin-resistant Staphylococcus aureus 523005 clinical isolate after 20 to 24 hrs by two-fold microdilution method
Staphylococcus aureus [39] = assay: Antibacterial activity against methicillin-resistant Staphylococcus aureus 221014 clinical isolate after 20 to 24 hrs by two-fold microdilution method
Staphylococcus aureus [40] = assay: Antibacterial activity against methicillin-resistant Staphylococcus aureus 10844 clinical isolate after 20 to 24 hrs by two-fold microdilution method
Staphylococcus aureus [41] = assay: Antibacterial activity against methicillin-resistant Staphylococcus aureus 921026 clinical isolate after 20 to 24 hrs by two-fold microdilution method
Staphylococcus aureus [42] = assay: Antibacterial activity against methicillin-resistant Staphylococcus aureus 304243 clinical isolate after 20 to 24 hrs by two-fold microdilution method
Staphylococcus aureus [43] = assay: Antibacterial activity against methicillin-resistant Staphylococcus aureus ATCC 43300 after 20 to 24 hrs by two-fold microdilution method
Staphylococcus aureus [44] = assay: Antibacterial activity against methicillin-resistant Staphylococcus aureus 531026 clinical isolate after 20 to 24 hrs by two-fold microdilution method

With `O=C1c2cccnc2C(=O)c2c1c(C(=O)OCCCCCCN1CCCCC1)c1ccc(Br)cn21` the MIC (Staphylococcus aureus [1]) was 0.063 µg/mL (≈ 0.117 µM), the MIC (Staphylococcus aureus [2]) was 0.063 µg/mL (≈ 0.117 µM) and the MIC (Staphylococcus aureus [3]) was 0.125 µg/mL (≈ 0.232 µM). The MIC (Staphylococcus aureus [4]) was 0.125 µg/mL (≈ 0.232 µM), the MIC (Staphylococcus aureus [5]) was 0.063 µg/mL (≈ 0.117 µM) and the MIC (Staphylococcus aureus [6]) was 0.063 µg/mL (≈ 0.117 µM). For the same compound, the MIC (Staphylococcus aureus [7]) was 0.063 µg/mL (≈ 0.117 µM), the MIC (Staphylococcus aureus [8]) was ≤ 0.0078 µg/mL and the MIC (Escherichia coli) was 2 µg/mL (≈ 3.71 µM). It also gave an MIC (Staphylococcus aureus [9]) of 0.031 µg/mL (≈ 0.0576 µM), an MIC (Staphylococcus aureus [10]) of 0.063 µg/mL (≈ 0.117 µM) and an MIC (Staphylococcus aureus [11]) of 0.031 µg/mL (≈ 0.0576 µM). The MIC (Staphylococcus aureus [12]) was 0.063 µg/mL (≈ 0.117 µM), the MIC (Staphylococcus aureus [13]) was 0.063 µg/mL (≈ 0.117 µM) and the MIC (Staphylococcus aureus [14]) was > 16 µg/mL. It also gave an MIC (Staphylococcus aureus [15]) of 0.25 µg/mL (≈ 0.464 µM), an MIC (Staphylococcus aureus [16]) of 0.031 µg/mL (≈ 0.0576 µM) and an MIC (Staphylococcus aureus [17]) of 0.063 µg/mL (≈ 0.117 µM). For the same compound, the MIC50 (Staphylococcus aureus [18]) was 0.063 µg/mL (≈ 0.117 µM), the MIC90 (Staphylococcus aureus [18]) was 0.125 µg/mL (≈ 0.232 µM) and the MIC (Staphylococcus aureus [19]) was 0.25 µg/mL (≈ 0.464 µM). For the same compound, the MIC (Staphylococcus aureus [20]) was 0.031 µg/mL (≈ 0.0576 µM), the MIC (Staphylococcus aureus [21]) was 0.063 µg/mL (≈ 0.117 µM) and the MIC (Staphylococcus aureus [22]) was 0.063 µg/mL (≈ 0.117 µM). It also gave an MIC (Staphylococcus aureus [23]) of 0.063 µg/mL (≈ 0.117 µM), an MIC (Staphylococcus aureus [24]) of 0.125 µg/mL (≈ 0.232 µM) and an MIC (Enterococcus faecalis) of 0.125 µg/mL (≈ 0.232 µM). The MIC (Staphylococcus aureus [25]) was 0.031 µg/mL (≈ 0.0576 µM), the MIC (Staphylococcus aureus [26]) was ≤ 0.0078 µg/mL and the MIC (Staphylococcus aureus [27]) was 0.063 µg/mL (≈ 0.117 µM). The MIC (Staphylococcus aureus [28]) was 0.063 µg/mL (≈ 0.117 µM), the MIC (Staphylococcus aureus [29]) was 0.031 µg/mL (≈ 0.0576 µM) and the MIC (Staphylococcus aureus [30]) was 0.125 µg/mL (≈ 0.232 µM). The MIC (Staphylococcus aureus [31]) was 0.031 µg/mL (≈ 0.0576 µM), the MIC [32] was 0.125 µg/mL (≈ 0.232 µM) and the MIC (Staphylococcus aureus [33]) was ≤ 0.0078 µg/mL. It also gave an MIC (Streptococcus pneumoniae) of 0.5 µg/mL (≈ 0.929 µM), an MIC (Staphylococcus aureus [34]) of 0.063 µg/mL (≈ 0.117 µM) and an MIC (Staphylococcus aureus [35]) of 0.063 µg/mL (≈ 0.117 µM). It also gave an MIC (Staphylococcus aureus [36]) of 0.125 µg/mL (≈ 0.232 µM), an MIC (Staphylococcus aureus [37]) of 0.125 µg/mL (≈ 0.232 µM) and an MIC (Staphylococcus aureus [38]) of 0.125 µg/mL (≈ 0.232 µM). For the same compound, the MIC (Staphylococcus aureus [39]) was 0.125 µg/mL (≈ 0.232 µM), the MIC (Staphylococcus aureus [40]) was 0.063 µg/mL (≈ 0.117 µM) and the MIC (Staphylococcus aureus [41]) was 0.063 µg/mL (≈ 0.117 µM). It also gave an MIC (Staphylococcus aureus [42]) of 0.016 µg/mL (≈ 0.0297 µM), an MIC (Staphylococcus aureus [43]) of 0.063 µg/mL (≈ 0.117 µM) and an MIC (Staphylococcus aureus [44]) of 0.063 µg/mL (≈ 0.117 µM).
